Results published in US11052154B2, “Ras protein degradation inducing molecule and pharmaceutical composition” (Tokyo University of Science Foundation, priority 2016, dated 2021).
Where a SMILES comes first, the peptide text is derived from it. [ ]: non-standard residue; d: D form. Nle = CCCC[C@H](N)C(=O)O

Key:
[1] = target: T1, PAC-3 (molecule assembly factor) (Homo sapiens, UniProt Q9BT73); conditions: Table 17; cited from earlier work
T1 sequence (Q9BT73 1-122): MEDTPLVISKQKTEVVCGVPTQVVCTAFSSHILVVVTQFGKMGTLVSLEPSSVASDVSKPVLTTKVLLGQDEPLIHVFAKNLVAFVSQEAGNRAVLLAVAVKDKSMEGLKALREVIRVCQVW

SW1990 cells = assay: Apoptosis induction in SW1990 cells, FACS analysis (Annexin V/PI); type: cell-based, human; conditions: SW1990 cells expressing G12D mutant K-Ras, 24 hours after addition; FIGS. 6B, 7B
Procedure: (§1) In Example 7, apoptosis induction in a case where TUS-007, Ras-SOS, or Ras-SOS-NH2 was added to HeLa cells or SW1990 cells (human pancreatic cancer cells) had been added was evaluated by the FACS analysis. It is noted that in HeLa cells, the wild-type K-Ras protein (K-Ras-WT) is expressed, and in SW1990 cells, the G12D mutant K-Ras protein (K-Ras-G12D) is expressed.
(§2) HeLa cells or SW1990 cells were seeded in a 24-well plate at a cell density of 8×10^4 cells/well, and then cultured under conditions of 37° C. and 5 vol % CO2 for 16 hours.
(§3) After 16 hours from cell seeding, TUS-007, Ras-SOS, or Ras-SOS-NH2 were added to HeLa cells or SW1990 cells as follows. As a medium, a serum-free medium (37° C.) in which 1 mass % L-glutamine solution (Sigma-Aldrich) was added to D-MEM (high D-glucose, phenol red, sodium pyruvate (Wako Pure Chemical Industries, Ltd.)) was used. It is noted that the L-glutamine solution was added immediately before use. A DMSO solution containing TUS-007, Ras-SOS, or Ras-SOS-NH2 was mixed with the medium so that the concentration of DMSO was 1 vol %, and added to each well at 500 μL/well, and cultured under conditions of 37° C. and 5 vol % CO2. As a control, DMSO was used.
(§4) The medium was removed 24 hours after addition of TUS-007, Ras-SOS, or Ras-SOS-NH2, and then PBS was added to wash the cells. After removing PBS, trypsin (0.25 w/v % trypsin-1 mmol/L EDTA⋅4 Na solution with phenol red) (Wako Pure Chemical Industries, Ltd.) at 37° C. was added to each well at 200 μL/well, and cultured under conditions of 37° C. and 5 vol % CO2 for 1 minute. […]
(§5) A BD FACSCanto™ II (BD Biosciences) was used for flow cytometry. […] The proportion of Annexin V-positive and PI-negative cells was calculated using an analysis software FlowJo™ (TOMY Digital Biology Co., Ltd.), and the proportion was defined as a proportion of apoptosis cells.
(§6) In Example 8, apoptosis induction in a case where TUS-007, Ras-SOS-NH2, or erlotinib as an anticancer agent (EGFR inhibitor) was added to HeLa cells or SW1990 cells was evaluated by FACS analysis as in Example 7.

HeLa cells = assay: Apoptosis induction in HeLa cells, FACS analysis (Annexin V/PI); type: cell-based, human; conditions: HeLa cells expressing wild-type K-Ras, 24 hours after addition; FIGS. 6A, 7A
Procedure: as §1, §2, §3, §4, §5, §6

[2] = target: T2, catalytic subunit β2 of the proteasome (Homo sapiens, UniProt Q99436); assay: Proteasome inhibitory activity, 20S proteasome β2 (trypsin-like activity); type: biochemical; conditions: 20S proteasome assay kit, AMC fluorescence substrate; FIGS. 10B, 13B
T2 construct: purchased Bioscience (so in the source) 20S Proteasome StressXpress Assay Kit Gold
Procedure: (§7) In Reference Example 2, the proteasome inhibitory activity of TMP-CANDDY_DMT and the affinity of TMP-CANDDY_DMT with a proteasome were evaluated. As a positive control, MG-132 as a proteasome inhibitor was used.
(§8) For evaluation, 20S Proteasome StressXpress™ Assay Kit Gold (Bioscience) was used. AMC was measured by using Multi-Detection Microplate Reader (Synergy HT, BIO-TEK). The AMC was produced by cleaving the C-terminus of an AMC-binding proteasome fluorescence substrate specific to β subunits of a 20S proteasome, including β5 (chymotrypsin-like activity), β2 (trypsin-like activity), and β1 (caspase-like activity). The measuring wavelengths were 360 nm for excitation light (Ex.), and 460 nm for fluorescence (Em.).
(§9) In Reference Example 6, as in Reference Example 2, a proteasome inhibitory activity of TMP-CANDDY_ALLN and an affinity of TMP-CANDDY_ALLN with a proteasome were evaluated.

ecDHFR protein [3] = target: T3, ecDHFR protein (Escherichia coli, UniProt P0ABQ4); type: cell-based, human; conditions: HeLa cells, 24 hours after addition, vs control (DMSO); FIGS. 11, 14
T3 construct: expressed in transfected cells; host or cells: HeLa

[4] = target: T4, catalytic subunit β1 of a proteasome (Homo sapiens, UniProt P28072); assay: Proteasome inhibitory activity, 20S proteasome β1 (caspase-like activity); type: biochemical; conditions: 20S proteasome assay kit, AMC fluorescence substrate; FIGS. 10A, 13A
T4 construct: purchased Bioscience (so in the source) 20S Proteasome StressXpress Assay Kit Gold
Procedure: as §7, §8, §9

[5] = target: T5, catalytic subunit β5 of the proteasome (Homo sapiens, UniProt P28074); assay: Proteasome inhibitory activity, 20S proteasome β5 (chymotrypsin-like activity); type: biochemical; conditions: 20S proteasome assay kit, AMC fluorescence substrate; FIGS. 10C, 13C
T5 construct: purchased Bioscience (so in the source) 20S Proteasome StressXpress Assay Kit Gold
Procedure: as §7, §8, §9

[6] = target: T6, endogenous wild-type K-Ras protein (Mus musculus, UniProt P32883); assay: Degradation of endogenous wild-type K-Ras protein in mouse pancreas and colorectal tissue, Western blot analysis; type: in vivo; conditions: C57BL/6J mice, intraperitoneal, TUS-007 40 or 80 mg/kg, Ras-SOS 80 mg/kg, 48 hours; pancreas and colon; FIG. 8
T6 construct: an endogenous wild-type K-Ras protein and wild-type H-Ras protein; from tissue; host or cells: mouse pancreas and colon
Procedure: (§10) In Example 9, in a mouse individual to which TUS-007 had been administered, the degradation (knockdown) of an endogenous wild-type K-Ras protein and wild-type H-Ras protein was evaluated by Western blot analysis.
(§11) TUS-007 was dissolved in DMSO, and then dissolved in corn oil so that the concentration of DMSO was 10 vol %, and then intraperitoneally administered to C57BL/6J wild-type mice (8 to 9 weeks old, male) (CLEA Japan, Inc.) in an amount of 40 mg/kg body weight or 80 mg/kg body weight (n=3 to 4). Furthermore, in addition to a group in which TUS-007 was administered, a group in which Ras-SOS had been administered in a dose of 80 mg/kg body weight was prepared. As a control, an injection carrier (corn oil containing 10 vol % DMSO) was used. The mice were kept under an environment of ad libitum access to food and water. The mice were dissected under deep anesthesia 48 hours after administration. The pancreas and colon were excised, and flash frozen in liquid nitrogen.
(§12) The frozen pancreas and colon were each triturated, and then TKM tissue lysis buffer (50 mM triethanolamine (pH 7.8), 50 mM KCl, 5 mM MgCl2, 0.25 M sucrose, 1 mM PMSF, Protein Inhibitors Cocktail-EDTA free (Nacalai Tesque, Inc.), 1 mM DTT, and a recombinant RNase inhibitor (0.2 U/μL, Takara Bio) were added, and subjected to centrifugation (at 13800 rpm×30 minutes, 4° C.), and the supernatants (pancreatic tissue extract and colorectal tissue extract) were collected. The concentration of the extracted proteins was quantified with a spectrophotometer.
(§13) Each tissue extract collected was subjected to Western blot analysis. […]
(§14) After electrophoresis, proteins were transferred to a PVDF membrane (Immobion™-P, Millipore) under conditions of 200 mA and 90 minutes using a tank-type blotting device and a transfer buffer (25 mM Tris-HCl, 195 mM glycine, 0.01% SDS, 15% methanol). […] Subsequently, the membrane was treated with a chemiluminescence reagent Immobilon™ Western (Millipore), and then chemiluminescence was detected using a lumino image analyzer LAS-3000 (FUJIFILM Corporation).

[7] = system: interaction between the Ras protein and the SOS protein; conditions: known from Sun, Q. et al.; cited from earlier work
[8] = target: T7, endogenous wild-type H-Ras protein (Mus musculus, UniProt Q61411); assay: Degradation of endogenous wild-type H-Ras protein in mouse pancreas and colorectal tissue, Western blot analysis; type: in vivo; conditions: C57BL/6J mice, intraperitoneal, TUS-007 40 or 80 mg/kg, Ras-SOS 80 mg/kg, 48 hours; pancreas and colon; FIG. 8
T7 construct: an endogenous wild-type K-Ras protein and wild-type H-Ras protein; from tissue; host or cells: mouse pancreas and colon
Procedure: as §10, §11, §12, §13, §14

K-Ras protein = conditions: known from Sun, Q. et al.; cited from earlier work
ecDHFR protein [9] = target: T3, ecDHFR protein; type: cell-based, human; conditions: HeLa cells, FIGS. 12A, 12B
[10] = target: T4, catalytic subunit β1 of a proteasome; conditions: literature report, consistent with FIG. 13A; cited from earlier work

Row | Compound | apoptosis induction (proportion of Annexin V-positive and PI-negative cells) (SW1990 cells) | apoptosis induction (proportion of Annexin V-positive and PI-negative cells) (HeLa cells) | inhibitory activity against proteasome β2 (trypsin-like activity) [2] | degradation (knockdown) of the ecDHFR protein (shift of GFP/DsRed ratio graph) (ecDHFR protein [3]) | inhibitory activity against proteasome β1 (caspase-like activity) [4] | inhibitory activity against proteasome β5 (chymotrypsin-like activity) [5] | further results
1 | CC(C)C(O)(CC1C(=O)/C(=C(\O)[C@H]2C3CCCC[C@H]3C=C[C@H]2C)C(=O)N1C)C(=O)O (some centres unmarked) [JBIR-22] | – | – | – | – | – | – | Others: PAC-3 inhibition [1]: PAC-3 (molecule assembly factor) inhibition)
2 | C#Cc1cccc(Nc2ncnc3cc(OCCOC)c(OCCOC)cc23)c1 [erlotinib] | the effect of the apoptosis induction by erlotinib was largely reduced | apoptosis was induced in a concentration-dependent manner | – | – | – | – | –
3 | CCCC[C@H](NC(=O)[C@H](CC(C)C)NC(=O)[C@H](CC(C)C)NC(C)=O)C(=O)NCCCCCCNC(=O)COc1c(OC)cc(Cc2cnc(N)nc2N)cc1OC [TMP-CANDDY_ALLN] | – | – | the inhibitory activity was weakened | degradation of the ecDHFR protein was induced | increased against any of β1, β2, and β5 in a concentration dependent manner | the inhibitory activity was weakened | –
4 | CC[C@H](C)[C@H](N)C(=O)Nc1ccc2[nH]c(Cc3c[nH]c4ccccc34)nc2c1 [Ras-SOS] | the effect of the apoptosis induction by Ras-SOS was largely reduced | apoptosis was induced in a concentration-dependent manner | – | – | – | – | amount of the endogenous wild-type K-Ras protein in mouse tissues (Western blot) [6]: the amount of the wild-type K-Ras protein and the wild-type H-Ras protein was not reduced; inhibition of the interaction between the Ras protein and the SOS protein [7]: inhibit the interaction between the Ras protein and the SOS protein; amount of the endogenous wild-type H-Ras protein in mouse tissues (Western blot) [8]: the amount of the wild-type K-Ras protein and the wild-type H-Ras protein was not reduced; binding to K-Ras protein (wild-type, G12D mutant, G12V mutant) (K-Ras protein): bound to not only a wild-type K-Ras protein but also a G12D mutant and a G12V mutant K-Ras protein
5 | COc1nc(NCCCCCCNC(=O)COc2c(OC)cc(Cc3cnc(N)nc3N)cc2OC)nc(OC)n1 [TMP-CANDDY_DMT] | – | – | significantly lower proteasome inhibitory activity as compared with MG-132 | degradation of the ecDHFR protein was induced | significantly lower proteasome inhibitory activity as compared with MG-132 | significantly lower proteasome inhibitory activity as compared with MG-132 | amount of the ecDHFR protein (Western blot) (ecDHFR protein [9]; 24 hours after addition, cycloheximide 50 μg/mL at 12 hours): the amount of the ecDHFR protein was reduced; degradation of the ecDHFR protein when both TMP-CANDDY_DMT and bortezomib were added (ecDHFR protein [9]; bortezomib co-added, compared with TMP-CANDDY_DMT alone): degradation of the ecDHFR protein was inhibited
6 | CCCC[C@@H](C=O)NC(=O)[C@H](CC(C)C)NC(=O)[C@H](CC(C)C)NC(C)=O [ALLN] (Ac-Leu-Leu-[Nle]-aldehyde) | – | – | – | – | – | – | inhibition of proteasome β1 as reported (Kaiser, M. et al.) [10]: β1 was not inhibited by ALLN
